From patent US6916802B2, “Amino ceramide-like compounds and therapeutic methods of use” (Genzyme Corporation, priority 2002, dated 2005)
Several values for one entry are separate records, joined by “and”; a condition that tells them apart may be missing. Equal entries are not always repeated. Marks after values point to notes of the source that are not given here.

Key:
[1] = test system: GlcCer synthase of MDCK cell homogenates; test: Inhibition of ceramide glucosyltransferase (GlcCer synthase) of MDCK cell homogenates; type: biochemical, canine; conditions: for % Inhibition at 80 μM: 80 μM inhibitor; for % Inhibition at 80 μM / Inhibition at 5 μM: triplicate ± SD, samples partly isomer mixtures; for Inhibition at 5 μM: 5 μM inhibitor; for inhibition of GlcCer synthase by nonionic ceramide-like compounds: 20 μM
Description: Assay of sphingolipid enzymes. The inhibitors were evaluated for their effectiveness against the GlcCer synthase of MDCK cell homogenates by incubation in a thermostatted ultrasonic bath (Radin N. S. et al., “Ultrasonic Baths as Substitutes for Shaking Incubator Baths,” Enzyme, 45:67-70 (1991)) with octanoyl sphingosine and uridinediphospho[^3H]glucose (Shukla, G. S. et al., “Glucosylceramide Synthase of Mouse Kidney: Further Characterization and Improved Assay Method,” Arch. Biochem. Biophys., 283:372-378 (1990)). The lipoidal substrate (85 μg) was added in liposomes made from 0.57 mg dioleoylphosphatidylcholine and 0.1 mg of Na sulfatide. Confluent cells were washed, then homogenized with a micro-tip sonicator at 0° C. for 3×30 sec; ˜0.2 mg of protein was used in each assay tube. In the case of the aromatic inhibitors, the test compound was simply evaporated to dryness from solution in the incubation tube. […] The aliphatic inhibitors, which appeared to be less soluble in water, were added as part of the substrate liposomes.

[2] = test system: H-460 lung large cell carcinoma cells; test: Tumor cell growth in vitro (sulforhodamine B), H-460; type: cell-based, human; conditions: rounded off to one digit, read-out: Inhibition of tumor cell growth in vitro, IC50
Description: (§1) Growth of cell lines. Comparisons of different inhibitors with regard to suppression of human cancer cell growth were made by the University of Michigan Cancer Center in vitro Drug Evaluation Core Laboratory. MCF-7 breast carcinoma cells, HT-29 colon adenocarcinoma cells, H-460 lung large cell carcinoma cells, and 9L brain gliosarcoma cells were grown in RPMI 1640 medium with 5% fetal bovine serum, 2 mM glutamine, 50 units/ml of penicillin, […] of streptomycin, and 0.1 mg/ml of neomycin. UMSCC-10A head and neck squamous carcinoma cells were grown in minimal essential medium with Earle salts and the same supplements. Medium components were from Sigma Chemical Co. Cells were plated in 96-well microtiter plates (1000 cells/well for H-460 and 9L cells, and 2000 cells/well for the other lines), and the test compounds were added 1 day later. The stock inhibitor solutions, 2 mM in 2 mM BSA, were diluted with different amounts of additional 2 mM BSA, then each solution was diluted 500-fold with growth medium to obtain the final concentrations indicated in the Figures and Tables.
(§2) Five days after plating the H-460 and 9L cells, or 6 days for the other lines, cell growth was evaluated by staining the adhering cells with sulforhodamine B and measuring the absorbance at 520 nm (Skehan, P. et al., “New Colorimetric Cytotoxicity Assay for Anticancer-Drug Screening,” J. Natl. Cancer Inst., 82:1107-1112 (1990)). The absorbance of the treated cultures is reported as percent of that of control cultures, to provide an estimate of the fraction of the cells that survived, or of inhibition of growth rate.

[3] = test system: MCF-7 breast carcinoma cells; test: Tumor cell growth in vitro (sulforhodamine B), MCF-7; type: cell-based, human; conditions: rounded off to one digit, read-out: Inhibition of tumor cell growth in vitro, IC50
Description: as §1, §2

[4] = test system: 9L brain gliosarcoma cells; test: Tumor cell growth in vitro (sulforhodamine B), 9L; type: cell-based; conditions: for IC50: 9L, rounded off to one digit, read-out: Inhibition of tumor cell growth in vitro, IC50; for effectiveness on growth and survival of 9L cells, in words: FIG. 1
Description: as §1, §2

[5] = test system: Neutral sphingomyelinase (SMase); test: Neutral sphingomyelinase of MDCK cells; type: biochemical, canine
Description: Acid and neutral SMase assays were based on the procedures of Gatt et al. (Gatt, S. et al., “Assay of Enzymes of Lipid Metabolism With Colored and Fluorescent Derivatives of Natural Lipids,” Meth. Enzymol., 72:351-375 (1981)), using liposomes containing NBD-SM dispersed like the labeled ceramide (10 μM substrate and 30 μM lecithin). […] Incubation was at 37° C. for 30 min in the ultrasonic bath, then the fluorescent product, NBD-ceramide, was isolated by partitioning the assay mixture with 0.45 ml 2-propanol, 1.5 ml heptane, and 0.2 ml water. After centrifugation, a trace of contaminating NBD-SM was removed from 0.9 ml of the upper layer by washing with 0.35 ml water. The upper layer was analyzed with a fluorometer (460 nm excitation, 515 nm emission).

MDCK cells [6] = test: Lipid changes in MDCK cells (GlcCer, ceramide, diacylglycerol); type: cell-based, canine
Ceramide synthase = Ceramide synthase of MDCK homogenate; type: biochemical, canine
Description: Ceramide synthase was assayed with 1 μM [3-^3H]sphingosine (70,000 cpm, repurified by column chromatography), 0.2 mM stearoyl-CoA, 0.5 mM dithiothreitol, and ˜300 μg of MDCK homogenate protein in 25 mM phosphate-K^+ buffer, pH 7.4, in a total volume of 0.2 ml. The incubation (for 30 min) and TLC were carried out as above and the ceramide band was counted.

MDCK cells [7] = test: MDCK cell growth (cellular protein per dish); type: cell-based, canine
Description: For the experiments with labeled thymidine, each 8.5 cm dish contained 500,000 Madin-Darby canine kidney (MDCK) cells in 8 ml of Dulbecco modified essential supplemented medium. […] The control cells were also incubated in the presence of BSA. The cells were washed with phosphate/saline and trichloroacetic acid, then scraped off the dishes, dissolved in alkali, and analyzed for protein and DNA incorporated tritium. [Methyl-^3H]thymidine (10 μCi) was added 4 h prior to harvesting.

neutral ceramidase = test: Neutral ceramidase of MDCK cell homogenate; type: biochemical, canine
Description: (§3) Acid and neutral ceramidases were assayed under conditions like those above, but the medium contained 110 μM [1-^14C]decanoyl sphingosine (10^5 cpm) in 340 μM dioleoylphosphatidylcholine liposomes and 0.34 mg of MDCK cellular protein homogenate. […] After 60 min in the ultrasonic bath, 3 ml of C-M 2:1, carrier decanoic acid, and 0.6 ml of 0.9% saline were added and the lipids in the lower layer were separated by TLC with C-HOAc 9:1. The liberated decanoic acid was scraped off the glass plate and counted.

Acid SMase = test: Acid sphingomyelinase of MDCK cells; type: biochemical, canine
Description: Acid and neutral SMase assays were based on the procedures of Gatt et al. (Gatt, S. et al., “Assay of Enzymes of Lipid Metabolism With Colored and Fluorescent Derivatives of Natural Lipids,” Meth. Enzymol., 72:351-375 (1981)), using liposomes containing NBD-SM dispersed like the labeled ceramide (10 μM substrate and 30 μM lecithin). The assay medium for the neutral enzyme also contained 50 mM Tris-Cl^− (pH 7.4), 25 mM KCl, 5 mM MgCl2 and 0.29 mg of MDCK cell protein in a total volume of 0.25 ml. Incubation was at 37° C. for 30 min in the ultrasonic bath, then the fluorescent product, NBD-ceramide, was isolated by partitioning the assay mixture with 0.45 ml 2-propanol, 1.5 ml heptane, and 0.2 ml water. After centrifugation, a trace of contaminating NBD-SM was removed from 0.9 ml of the upper layer by washing with 0.35 ml water. The upper layer was analyzed with a fluorometer (460 nm excitation, 515 nm emission).
[…] The resultant ceramide was determined as above.

acid ceramidase = test: Acid ceramidase of MDCK cell homogenate; type: biochemical, canine
Description: as §3

CCCCCCCCCCCCCCCC(=O)NC(CN1CCOCC1)C(O)c1ccc(F)cc1 (mixture of isomers) [BML-113]
% Inhibition at 80 μM [1]: 60 ± 4.7^a %

CCCCCCCCCCCCCCCC(=O)NC(CN(CC)CC)C(O)c1ccccc1 (mixture of isomers) [BML-114]
activity against GlcCer synthase, in words [1]: little or no activity
% Inhibition at 80 μM [1]: 31 ± 2.9^a %

CCCCCCCCCCCCCCCC(=O)NC(CN1CCCCCC1)C(O)c1ccccc1 (mixture of isomers) [BML-116]
% Inhibition at 80 μM [1]: 28 ± 3.2^a %

CCCCCCCCCC(=O)NC(CN1CCOCC1)C(O)c1ccc(F)cc1 (mixture of isomers) [BML-117]
% Inhibition at 80 μM [1]: 35 ± 0.6^b %

CCCCCCCCCCCCCCCC(=O)NC(CN1CCCCC1)C(O)c1ccc(F)cc1 (mixture of isomers) [BML-118]
Inhibition at 5 μM [1]: 8.3 ± 1.4^f %
% Inhibition at 80 μM [1]: 62 ± 0.4^b %
IC50 [2]: 2 µM
IC50 [3]: 2 µM
IC50 [4]: 2 µM

CCCCCCCCCCCCCCCC(=O)NC(CN1CCN(C)CC1)C(O)c1ccccc1 (mixture of isomers) [BML-120]
% Inhibition at 80 μM [1]: 11 ± 3.0^c %

CCCCCCCCCCCCCCCC(=O)NC(CN1CCCC(N(C)C)C1)C(O)c1ccccc1 (mixture of isomers) [BML-121]
% Inhibition at 80 μM [1]: 11 ± 0.4^c %

CCCCCCCCCCCCCCCC(=O)NC(CN(C)CCO)C(O)c1ccccc1 (mixture of isomers) [BML-122]
% Inhibition at 80 μM [1]: 58 ± 1.6^d %

CCCCCCCCCCCCCCCC(=O)NC(CN)C(O)c1ccccc1 (mixture of isomers) [BML-124]
activity against GlcCer synthase, in words [1]: little or no activity
% Inhibition at 80 μM [1]: −2 ± 1.6^d %

CCCCCCCCCCCCCCCC(=O)NC(CN1CCOCC1)C(O)c1ccc(OC)cc1 (mixture of isomers) [BML-125]
Inhibition at 5 μM [1]: 9 ± 3.0^e %

CCCCCCCCCCCCCCCC(=O)NC(CN1CCCC1)C(O)c1ccc(OC)cc1 (mixture of isomers) [BML-126]
Inhibition at 5 μM [1]: 54 ± 0.3^f %
% Inhibition at 80 μM [1]: 60 ± 1.8^e %
IC50 [4]: 2 µM

CCCCCCCCCCCCCC(=O)N[C@@H](C)[C@H](O)c1ccccc1 [D-erythro-N-myristoyl-2-amino-1-phenyl-1-propanol, reference compound]
inhibition of GlcCer synthase by nonionic ceramide-like compounds [1]: did not inhibit

CCCCCCCCCCCCC/C=C/[C@H](O)[C@@H](CN1CCOCC1)NC(=O)CCCCCCCCCCCCCCC [IV-181A]
Inhibition at 5 μM [1]: 12 ± 0.2^g %

CCCCCCCCCCCCC/C=C/[C@@H](O)[C@@H](CN1CCOCC1)NC(=O)CCCCCCCCCCCCCCC [IV-206A]
Inhibition at 5 μM [1]: 73 ± 1.5^g %

CCCCCCCCCCCCC/C=C/[C@H](O)[C@@H](CN1CCCC1)NC(=O)CCCCCCCCCCCCCCC [IV-230A]
Inhibition at 5 μM [1]: 19 ± 2.1^g %

CCCCCCCCCCCCCC=CC(O)C(CN1CCCC1)NC(=O)CCCCCCCCCCCCCCC [IV-231B, D-threo-1-pyrrolidino-1-deoxyceramide]
degree of inhibition of GlcCer synthase ([1]; 3 μM, inhibitor incorporated into the substrate liposomes): 77±0.9%
Inhibition at 5 μM [1]: 87 ± 0.4^g %
Sphingomyelinase pH 7.1, enzyme activity (% of control) ([5]; 5 μM): 131 ± 3^b % of control
Sphingomyelinase pH 7.1, enzyme activity (% of control) ([5]; 50 μM): 120 ± 3^b % of control
GlcCer in cells (TLC) (MDCK cells [6]; 1 μM for 3 days): virtually no GlcCer was visible
GlcCer in cells (TLC) (MDCK cells [6]; 0.02 to 1 μM for 3 days): great depletion of GlcCer
ceramide accumulation (TLC) (MDCK cells [6]; 0.02 to 1 μM for 3 days): no ceramide accumulation
all the GSLs in cells (TLC) (MDCK cells [6]; 5 days in 5 μM inhibitor): virtually undetectable
ceramide concentration (MDCK cells [6]; depleted cells, 5 days in 5 μM inhibitor): 13.9±0.2 μg/mg protein
Ceramide Synthase, enzyme activity (% of control) (Ceramide synthase; 5 μM): 90 ± 8 % of control
Ceramide Synthase, enzyme activity (% of control) (Ceramide synthase; 50 μM): 71 ± 18^a % of control
effect on MDCK cell growth (MDCK cells [7]; 20 μM for 1 day or 1 μM for 3 days): no inhibitory effect
effect on MDCK cell growth (MDCK cells [7]; 5 days in 5 μM inhibitor): no slowing of growth
protein per dish (MDCK cells [7]; 5 days in 5 μM inhibitor, BSA complex): 3.30 ± 0.04 mg
Ceramidase pH 7.4, enzyme activity (% of control) (neutral ceramidase; 5 μM): 116 ± 20 % of control
Ceramidase pH 7.4, enzyme activity (% of control) (neutral ceramidase; 50 μM): 112 ± 3 % of control
Sphingomyelinase pH 4.5, enzyme activity (% of control) (Acid SMase; 5 μM): 101 ± 7 % of control
Sphingomyelinase pH 4.5, enzyme activity (% of control) (Acid SMase; 50 μM): 112 ± 11 % of control
Ceramidase pH 4.5, enzyme activity (% of control) (acid ceramidase; 5 μM): 106 ± 3 % of control
Ceramidase pH 4.5, enzyme activity (% of control) (acid ceramidase; 50 μM): 113 ± 8 % of control

CCCCCCCCCCCCC/C=C/[C@@H](O)[C@H](CO)NC(C)=O [N-acetylsphingosine, reference compound]
inhibition of GlcCer synthase by nonionic ceramide-like compounds [1]: did not inhibit

CCCCCCCCCC(=O)N[C@H](CN1CCOCC1)[C@H](O)c1ccccc1 [PDMP, 1R-phenyl-2R-decanoylamino-3-morpholino-1-propanol, reference compound]
Inhibition at 5 μM [1]: 16 ± 1.8^f %
% Inhibition at 80 μM [1]: 90 ± 0.8^a %
Sphingomyelinase pH 7.1, enzyme activity (% of control) ([5]; 5 μM): 121 ± 13 % of control
Sphingomyelinase pH 7.1, enzyme activity (% of control) ([5]; 50 μM): 108 ± 8 % of control
Ceramide Synthase, enzyme activity (% of control) (Ceramide synthase; 5 μM): 99 ± 5 % of control
Ceramide Synthase, enzyme activity (% of control) (Ceramide synthase; 50 μM): 66 ± 9^a % of control
Ceramidase pH 7.4, enzyme activity (% of control) (neutral ceramidase; 5 μM): 116 ± 19 % of control
Ceramidase pH 7.4, enzyme activity (% of control) (neutral ceramidase; 50 μM): 105 ± 11 % of control
Sphingomyelinase pH 4.5, enzyme activity (% of control) (Acid SMase; 5 μM): 102 ± 3 % of control
Sphingomyelinase pH 4.5, enzyme activity (% of control) (Acid SMase; 50 μM): 100 ± 3 % of control
Ceramidase pH 4.5, enzyme activity (% of control) (acid ceramidase; 5 μM): 97 ± 4 % of control
Ceramidase pH 4.5, enzyme activity (% of control) (acid ceramidase; 50 μM): 133 ± 13^a % of control
effectiveness on growth and survival of 9L cells, in words [4]: even weaker effectiveness

CCCCCCCCCCCCCCCC(=O)NC(CN1CCOCC1)C(O)c1ccccc1 (centres unmarked) [PPMP, reference compound]
Inhibition at 5 μM ([1]; 5 µM): 32 ± 1.8^e % and 32 ± 0.7^f %
effectiveness on growth and survival of 9L cells, in words [4]: relatively weak effectiveness
